The source of these data is patent US20080194585A1, “Fungicidal Pyrazine Derivatives” (priority 2005, published 2008).

Marks after values point to notes of the source that are not given here.

The test system of assay [1] is Erysiphe graminis f. sp. tritici. The assay is described as follows: Test L: wheat powdery mildew, preventive spray on wheat seedlings.
In assay [2] the test system is Phytophthora infestans. As to the kind of experiment: whole plant or invertebrate. Format: in vivo.
The subject of assay [3] is fusarium graminearium. As to the kind of experiment: Test I: wheat head scab, preventive spray on wheat seedlings.
Method: (the causal agent of wheat head scab) and incubated in a saturated atmosphere at 20° C. for 72 h, and then moved to a growth chamber at 22° C. for 5 days, after which disease ratings were made.
The test system of assay [4] is Plasmopara viticola. As to the kind of experiment: Test D: grape downy mildew, spray after inoculation of grape seedlings. Format: in vivo. The text has this: Upon removal, disease ratings were made. […] A dash (-) indicates no test results.
In assay [5] the test system is Colletotrichum orbiculare. The assay is described as follows: Test B: cucumber Colletotrichum anthracnose, preventive spray on cucumber seedlings.
Assay [6] concerns Septoria tritici. The assay is described as follows: Test J: wheat leaf blotch, preventive spray on wheat seedlings. Format: in vivo. The source says: A dash (-) indicates no test results.
The subject of assay [7] is Sclerotinia sclerotiorum. The assay is described as follows: Test C: cucumber white mold, preventive spray on cucumber seedlings.
Assay [8] relates to Pythium aphanidermatum. As to the kind of experiment: Test A: bluegrass pythium blight, preventive spray on bluegrass seedlings.
The test system of assay [9] is Septoria nodorum. As to the kind of experiment: Test H: wheat glum blotch, preventive spray on wheat seedlings.
Method: (the causal agent of wheat glum blotch) and incubated in a saturated atmosphere at 20° C. for 48 h, and then moved to a growth chamber at 22° C. for 5 days, after which disease ratings were made.
For assay [10], the system named is Rhizoctonia oryzae. The assay is described as follows: Test G: turf brown patch, preventive spray on creeping bent grass seedlings.
Method: (the causal agent of turf brown patch) and incubated in a saturated atmosphere at 27° C. for 24 h, and then moved to a growth chamber at 27° C. for 5 days, after which disease ratings were made.
In assay [11] the test system is Puccinia recondita f. sp. tritici. As to the kind of experiment: Test K: wheat leaf rust, preventive spray on wheat seedlings.
For assay [12], the system named is Botrytis cinerea. The assay is described as follows: Test E: tomato botrytis, preventive spray on tomato seedlings.
[13] abbreviates: 40 ppm (marked *), 100 = 100% disease control, 0 = no control.
The mark [14] stands for this setting: 200 ppm, 100 = 100% disease control, 0 = no control.

Take `CCCCn1c(-c2ccc(F)cc2Cl)c(Cl)nc(N2CCC=N2)c1=O` [compound 267]: in assay [1] (setting [13]), the “Test L disease control rating” value was 0* %. Further, in [2] (setting [13]), the “Test F disease control rating” value was 0* %. In addition, in assay [3] (setting [13]), the “Test I disease control rating” value was 0* %. Moreover, the “Test D disease control rating” value in assay [4] (setting [13]) was 0* %. Further, in assay [5] (setting [13]), the “Test B disease control rating” value is listed as 0* %. Moreover, the “Test J disease control rating” value in assay [6] (setting [13]) was 60* %. In addition, the “Test C disease control rating” value in assay [7] (setting [13]) is 0* %. In addition, in [8] (setting [13]), the “Test A disease control rating” value is 0* %. In [9] (setting [13]), the “Test H disease control rating” value is 0* %. Also, the “Test G disease control rating” value in assay [10] (setting [13]) is recorded as 0* %. The “Test K disease control rating” value in assay [11] (setting [13]) is 68* %. In assay [12] (setting [13]), the “Test E disease control rating” value is 100* %.

`O=c1c(-n2cncn2)nc(Cl)c(-c2c(F)cccc2F)n1Cc1cccc(Cl)c1` [compound 276]: the “Test L disease control rating” value in [1] (setting [13]) is on record as 0* %. Moreover, the “Test F disease control rating” value in [2] (setting [13]) is 0* %. The “Test I disease control rating” value in assay [3] (setting [13]) is 0* %. For the same molecule, in assay [4] (setting [13]), the “Test D disease control rating” value was 0* %. In addition, the “Test B disease control rating” value in [5] (setting [13]) is listed as 0* %. Moreover, the “Test J disease control rating” value in [6] (setting [13]) is 100* %. Also, the “Test C disease control rating” value in assay [7] (setting [13]) was 0* %. In addition, in [8] (setting [13]), the “Test A disease control rating” value was 0* %. Besides, the “Test H disease control rating” value in assay [9] (setting [13]) is 78* %. For the same molecule, the “Test G disease control rating” value in assay [10] (setting [13]) is reported as 0* %. Moreover, the “Test K disease control rating” value in assay [11] (setting [13]) was 94* %. Further, the “Test E disease control rating” value in assay [12] (setting [13]) is 98* %.

As for `CCCCn1c(-c2ccc(F)cc2Cl)c(Cl)nc(-n2cccn2)c1=O` [compound 266], in [1] (setting [13]), the “Test L disease control rating” value is recorded as 99* %. Besides, the “Test F disease control rating” value in assay [2] (setting [13]) is recorded as 0* %. In addition, the “Test I disease control rating” value in [3] (setting [13]) is 0* %. Besides, the “Test D disease control rating” value in [4] (setting [13]) is 0* %. Moreover, the “Test B disease control rating” value in assay [5] (setting [13]) is given as 99* %. Also, in [6] (setting [13]), the “Test J disease control rating” value was 100* %. The “Test C disease control rating” value in assay [7] (setting [13]) is 0* %. In assay [8] (setting [13]), the “Test A disease control rating” value is reported as 0* %. In assay [9] (setting [13]), the “Test H disease control rating” value is listed as 99* %. Also, the “Test G disease control rating” value in assay [10] (setting [13]) is on record as 90* %. Also, in assay [11] (setting [13]), the “Test K disease control rating” value is 99* %. The “Test E disease control rating” value in assay [12] (setting [13]) is 100* %.

As for `Cc1ccc(-c2c(Cl)nc(-n3cccn3)c(=O)n2CC(C)C)c(C)c1` [compound 80], the “Test L disease control rating” value in assay [1] (200 ppm) is on record as 94%. Besides, the “Test F disease control rating” value in assay [2] (200 ppm) was found to be 0%. In [3] (200 ppm), the “Test I disease control rating” value was determined as 0%. The “Test D disease control rating” value in [4] (200 ppm) worked out at 0%. Moreover, the “Test B disease control rating” value in assay [5] (200 ppm) was 99%. Further, the “Test J disease control rating” value in assay [6] (200 ppm) came to 100%. For the same molecule, the “Test C disease control rating” value in [7] (40 ppm (*)) is reported as 0* %. For the same molecule, the “Test A disease control rating” value in assay [8] (200 ppm) was 0%. For the same molecule, the “Test H disease control rating” value in [9] (200 ppm) came to 100%. Besides, in assay [10] (200 ppm), the “Test G disease control rating” value was determined as 47%. Moreover, the “Test K disease control rating” value in assay [11] (200 ppm) came to 100%. In addition, the “Test E disease control rating” value in [12] (200 ppm) is 100%.

Take `Cc1ccn(-c2nc(Cl)c(-c3cc4c(cc3Cl)OCO4)n(CC(C)C)c2=O)n1` [compound 257]: the “Test L disease control rating” value in [1] (setting [14]) is listed as 0%. In addition, in assay [2] (setting [14]), the “Test F disease control rating” value came to 0%. Also, the “Test I disease control rating” value in assay [3] (setting [14]) is given as 0%. Moreover, the “Test D disease control rating” value in [4] (setting [14]) came out at 0%. The “Test B disease control rating” value in assay [5] (setting [14]) came out at 0%. Moreover, the “Test J disease control rating” value in assay [6] (setting [14]) stood at 71%. Moreover, the “Test C disease control rating” value in assay [7] (setting [14]) is 0%. For the same molecule, the “Test A disease control rating” value in [8] (setting [14]) was 81%. In addition, in assay [9] (setting [14]), the “Test H disease control rating” value amounted to 0%. The “Test G disease control rating” value in assay [10] (setting [14]) is on record as 0%. In addition, the “Test K disease control rating” value in [11] (setting [14]) turned out to be 74%. In addition, the “Test E disease control rating” value in assay [12] (setting [14]) amounted to 99%.
